Reference: patent US10632181B2, “Composition, containing RGD motif-containing peptide or fragment thereof, for treating burns and glaucoma, alleviating skin wrinkles, and promoting hair growth” (HUONS CO., LTD., priority 2014, dated 2020)
Positions of bridges follow the written chain, without caps; N, C: chain ends. No end group written: not given here.

What was measured:
Type in all cases: in vivo, Women aged 30-65
[1] = tested on: wrinkles around eyes; assay: Wrinkle extent around eyes, skin replica, Visiometer SV600; parameters: R3 numerical value (average roughness) / R1 numerical value (skin roughness) / R4 numerical value (smoothness depth) / R5 numerical value (arithmetic average roughness): unit not given here
Description: The extent of wrinkles around eyes was measured using equipment. A target site to measure the wrinkle extent was regions around the eyes of the subjects, and the left side and the right side of the face were set as a measurement site. To measure the wrinkle extent, the subjects were allowed to wash the measurement site with water, and take a rest for 30 minutes in the waiting room under constant temperature and constant humidity conditions of indoor temperature 20-25° C. and humidity 40-60% to acclimate the skin surface temperature and humidity to the environment of the measurement space, and were not permitted to drink water during the rest. For objective measurement, measurements were performed by one researcher, and the same site was measured at each time of the first visit before use and the second and third visits in 2 and 4 weeks after use. Transparency profilometry analysis was performed using Visiometer SV600 (Courage-Khazaka electronic GmbH, Germany) on skin replica of the site to which test product and control product were applied before use and 2 and 4 weeks after use, and to identify if there is any difference in each of control group and experimental group after use, a change (%) in R1, R2, R4, R5 measurement values in 2 and 4 weeks after use relative to before use was analyzed.

[2] = tested on: wrinkles around eyes; assay: Wrinkle extent around eyes by 3D imaging (PRIMOS Premium); conditions: for Rmax numerical value (maximum height of wrinkle profile) / Rp numerical value (maximum profile peak height) / Rv numerical value (maximum profile valley depth): in µm (unit assumed)
Description: Furthermore, the wrinkle extent was measured by 3D imaging. A target site to measure the wrinkle extent was regions around the eyes of the subjects, and the right side of the face was set as a measurement site. To measure the wrinkle extent, the subjects were allowed to wash the measurement site with water, and take a rest for 30 minutes in the waiting room under constant temperature constant humidity conditions of indoor temperature 20-25° C. and humidity 40-60% to acclimate the skin surface temperature and humidity to the environment of the measurement space, and were not permitted to drink water during the rest. For objective measurement, measurements were performed by one researcher, and the same site was measured at each time of the first visit before use and the second and third visits in 2 and 4 weeks after use. Before use and in 2 and 4 weeks after use, images of the site to which the test product (HU022 (SEQ ID NO:1)) was applied were formed using 3D skin imaging machine (PRIMOS Premium), and to verify if there is any difference in each of control group and experimental group in 4 weeks after use, wrinkle parameters, Ra, Rmax, Rt, Rp, Rv values, in the stored images of 2 weeks and 4 weeks after use relative to before use were analyzed.

[3] = tested on: wrinkles around eyes; assay: Expert visual assessment of wrinkles (global photodamage score); conditions: for expert visual assessment score: severity 0-7
Description: Furthermore, visual assessment was performed. At each visit before and after use, experts assessed the wrinkle extent by scoring using global photodamage score (Br J Dermatol. 2010; 162(3):497-502). To verify if there is any difference in each of control group and experimental group in 4 weeks after use, a change (%) in visual assessment scores of 2 weeks and 4 weeks after use relative to before use was analyzed. The visual assessment scores are as follows (Table 18): […]

[4] = tested on: wrinkles around eyes; assay: Survey of subjects about wrinkle reduction effectiveness
Description: Furthermore, surveying the subjects about effectiveness was conducted. The subjects were asked to personally make responses about the extent to which the subjects felt that wrinkles reduced after use of test product using 5 levels: better (4), a little bit better (3), no change (2), a little bit worse (1), worse (0). The researcher determined if test product has efficacy by calculating the percentage of the number of subjects for each response.

[5] = tested on: wrinkles around eyes; assay: Wrinkle extent around eyes, skin replica, Visiometer SV600; parameters: R3 numerical value (average roughness): unit not given here
[6] = response 2 (fair), 4 weeks after use
[7] = response 3 (good), 4 weeks after use
[8] = response 4 (very good), 4 weeks after use

## HU024 (RPTRGDCDLPEFCPG; disulfide 7-13; listed as Homo sapiens)
[1]; 2 weeks after use, twice daily
  R1 numerical value (skin roughness): 57.29 ± 3.21
  R2 numerical value (maximum roughness): 30.71 ± 6.57
  R3 numerical value (average roughness): 20.80 ± 3.97
  R4 numerical value (smoothness depth): 26.24 ± 2.90
  R5 numerical value (arithmetic average roughness): 11.58 ± 0.89
[1]; 4 weeks after use, twice daily
  R1 numerical value (skin roughness): 45.23 ± 13.77
  R2 numerical value (maximum roughness): 28.67 ± 7.47
  R3 numerical value (average roughness): 17.81 ± 4.00
  R4 numerical value (smoothness depth): 20.64 ± 6.07
  R5 numerical value (arithmetic average roughness): 8.42 ± 3.48
[1]; Before use
  R1 numerical value (skin roughness): 71.33 ± 15.86
  R2 numerical value (maximum roughness): 46.06 ± 11.62
  R4 numerical value (smoothness depth): 31.44 ± 11.04
  R5 numerical value (arithmetic average roughness): 13.52 ± 5.43
[1]; Before use-2 weeks after use
  Change(%) in R1: −19.68%
  Change(%) in R4: −16.54%
  Change(%) in R5: −14.36%
[1]; Before use-4 weeks after use
  Change(%) in R1: −36.59%
  Change(%) in R3: −54.55%
  Change(%) in R4: −34.36%
  Change(%) in R5: −37.71%
[2]; 2 weeks after use, twice daily
  Ra numerical value (roughness average of wrinkle profile): 18.33 ± 2.12
  Rt numerical value (distance between highest peak and lowest valley): 216.37 ± 41.76
  Rmax numerical value (maximum height of wrinkle profile): 198.77 ± 39.74
  Rp numerical value (maximum profile peak height): 155.24 ± 43.18
  Rv numerical value (maximum profile valley depth): 61.12 ± 8.02
[2]; 4 weeks after use, twice daily
  Ra numerical value (roughness average of wrinkle profile): 17.71 ± 2.43
  Rt numerical value (distance between highest peak and lowest valley): 210.60 ± 38.61
  Rmax numerical value (maximum height of wrinkle profile): 196.85 ± 39.02
  Rp numerical value (maximum profile peak height): 153.78 ± 36.12
  Rv numerical value (maximum profile valley depth): 56.82 ± 12.01
[2]; Before use
  Ra numerical value (roughness average of wrinkle profile): 18.64 ± 3.19
  Rt numerical value (distance between highest peak and lowest valley): 225.94 ± 45.00
  Rmax numerical value (maximum height of wrinkle profile): 206.55 ± 40.54
  Rp numerical value (maximum profile peak height): 160.85 ± 37.51
  Rv numerical value (maximum profile valley depth): 65.09 ± 11.95
[2]; Before use-2 weeks after use
  Change(%) in Ra: −0.75%
  Change(%) in Rmax: −3.77%
  Change(%) in Rp: −3.48%
  Change(%) in Rt: −4.24%
  Change(%) in Rv: −6.10%
[2]; Before use-4 weeks after use
  Change(%) in Ra: −4.10%
  Change(%) in Rmax: −4.69%
  Change(%) in Rp: −4.40%
  Change(%) in Rt: −6.79%
  Change(%) in Rv: −12.71%
[3]; 2 weeks after use
  expert visual assessment score: 2.00 ± 0.63
[3]; 4 weeks after use
  expert visual assessment score: 1.67 ± 0.82
[3]; Before use
  expert visual assessment score: 2.00 ± 0.63
[3]; Before use-2 weeks after use
  Change(%) in expert visual assessment score: 0%
[3]; Before use-4 weeks after use
  Change(%) in expert visual assessment score: −16.67%
[4]; response 0 (very bad), 4 weeks after use
  Number of subjects, wrinkle reduction survey: 0
[4]; response 1 (bad), 4 weeks after use
  Number of subjects, wrinkle reduction survey: 0
[4]; [6]
  Number of subjects, wrinkle reduction survey: 1
  Percentage of subjects, wrinkle reduction survey: (16.7) %
[4]; [7]
  Number of subjects, wrinkle reduction survey: 4
  Percentage of subjects, wrinkle reduction survey: (66.7) %
[4]; [8]
  Number of subjects, wrinkle reduction survey: 1
  Percentage of subjects, wrinkle reduction survey: (16.7) %
[4]; scale 0-4, 4 weeks after use
  Mean of wrinkle reduction survey response: 3.00
[4]; third visit, 4 weeks after use
  survey assessment about wrinkle reduction, test product versus control product: test product was better at reducing wrinkles than control product
[5]; Before use
  R3 numerical value (average roughness): 29.15 ± 5.56
[5]; Before use-2 weeks after use
  Change(%) in R3: −28.66%
